The source of these data is patent US20240226211A9, “SEAWEED EXTRACTS, ISOLATED COMPOUNDS, AND METHODS OF TREATMENT” (University of Florida Research Foundation, Incorporated, priority 2017, published 2024).

In experiment [1] the test system is ARE-driven genes (GCLC, Gclm, TXNRD1, GSTA4, HMOX1). In words: qPCR of ARE-driven genes in IMR-32 cells. The experiment is classed as cell-based, human. On the procedure:
(§1) The RNeasy Mini Kit (Qiagen) was used to collect total RNA from cells, while for mouse tissue, TRIzol reagent (Invitrogen) was used. In each case, total RNAs (2 μg) were reverse-transcribed into cDNAs, which were used as templates for TaqMan gene expression assay (Applied Biosystems) and detected using the 7300 Real-Time PCR System (Applied Biosystems). Each qPCR sample was tested in triplicate as a 25 μL total reaction volume (12.5 μL of Taqman 2× universal master mix, 1.25 μL of a 20× TaqMan gene expression assay probe, 1 μL of the above cDNA, and 10.25 μL of RNase-free sterile water). The qPCR method was designed as following: 50° C. for 2 min, 95° C. for 10 min, and 40 cycles of 95° C. for 15 s and 60° C. for 1 min. Endogenous controls used included GAPDH for IMR-32 cells and β-actin to normalize for RAW264.7 cells and mouse tissues.
(In qPCR the cycle at which signal appears reflects the starting amount.)

The test system of experiment [2] is NO production in MEF cells. In words: NO assay in MEF cells. The experiment is classed as cell-based, murine. As to conditions: stimulated with IFN-γ and TNF-α. How it is done:
(§2) RAW264.7 cells (2×10^4 cells/well), wild-type (8×10^3 cells/well), Nrf2−/−(7×10^3 cells/well), and Keap1−/−(5×10^3 cells/well) MEF were seeded into 96-well format. Cells were pretreated for 1 h with a solvent control (DMSO, 1%, v/v) or serial dilutions of isolated compounds or extracts before addition of LPS (1 μg/mL) or IFN-γ (10 ng/mL). […] In each case, 50 μL of the media was combined with 50 μL Griess Reagent (Promega). Absorbance was measured at 540 nm and compared with a calibration curve generated using the provided […] standard.

A further experiment concerns Cox2. Description: Cox2 transcript levels in RAW264.7 macrophage cells. Format: cell-based, mouse. To be noted: 10 μM Compound 1, IFN-γ. How it is done: as §1
(§3) RAW264.7 cells were seeded in 6-well plates (8×10^5 cells/well) and incubated at 37° C. overnight.

A further experiment deals with Nqo1. In words: Nqo1 transcript levels in RAW264.7 macrophage cells. Format: cell-based, mouse. As to conditions: 10 μM Compound 1, IFN-γ. On the procedure:
as §1, §3

Experiment [3] relates to nitric oxide (NO) production in RAW264.7 cells. In words: NO assay in RAW264.7 cells. The experiment is classed as cell-based, mouse. As to conditions: 10 μM Compound 1, IFN-γ. On the procedure: as §2
In another experiment the test system is Nrf2. In words: Nuclear translocation of NRF2 in IMR-32 cells. The experiment is classed as cell-based, human.
The subject of a further experiment is Hmox1. In words: Hmox1 transcript levels in mouse organs after oral gavage. The experiment is classed as in vivo. To be noted: mice, particularly digestive tract. On the procedure:
as §1
The experiments were approved by the Institutional Animal Care & Use Committee at the University of Florida. Groups of 5-10 wild type male mice (C57BL/6J) were used for each treatment type. The mice were maintained under approved standard conditions. […] The tissues were harvested immediately, frozen on dry ice, and kept at −80° C. until analyzed.
A low dose and a high dose of cymopol (1) or the NP extract were administered to 4-week-old male mice via oral gavage.

The target of the next experiment is T1, Keap1 (Cys-151) (Homo sapiens, UniProt Q14145).
T1 construct: expressed in transfected cells; host or cells: HEK293
T1 sequence (Q14145 whole entry): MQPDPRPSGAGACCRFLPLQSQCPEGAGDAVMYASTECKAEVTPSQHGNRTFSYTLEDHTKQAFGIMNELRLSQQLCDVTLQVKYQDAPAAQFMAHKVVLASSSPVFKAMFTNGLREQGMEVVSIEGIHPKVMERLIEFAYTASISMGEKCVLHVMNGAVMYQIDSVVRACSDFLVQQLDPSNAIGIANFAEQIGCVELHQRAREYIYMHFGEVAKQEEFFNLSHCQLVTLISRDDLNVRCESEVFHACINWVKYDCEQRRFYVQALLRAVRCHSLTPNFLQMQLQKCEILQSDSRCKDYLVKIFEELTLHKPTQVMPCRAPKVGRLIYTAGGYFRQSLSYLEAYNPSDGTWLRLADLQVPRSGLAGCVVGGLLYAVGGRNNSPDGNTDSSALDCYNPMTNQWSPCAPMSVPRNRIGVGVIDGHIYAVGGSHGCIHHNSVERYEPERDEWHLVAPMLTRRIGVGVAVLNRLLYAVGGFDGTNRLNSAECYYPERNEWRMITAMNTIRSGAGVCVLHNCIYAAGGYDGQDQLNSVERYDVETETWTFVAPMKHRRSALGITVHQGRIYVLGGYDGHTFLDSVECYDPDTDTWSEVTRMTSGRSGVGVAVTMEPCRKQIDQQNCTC
In words: Keap1 Cys-151 reactivity in co-transfected HEK293 cells. The experiment is classed as cell-based. To be noted: for Keap1-associated Cul3 / Keap1-Cul3 interaction: Keap1-CBD and HA-Cul3. The text has this:
The ARE-luciferase reporter construct (ARE-luc) contains the core sequence of human NQO1-ARE1. […] Mol. Cell. […] The Keap1-CBD plasmid carries the entire open reading frame (ORF) of human Keap1 fused to the chitin binding domain (CBD) of the Bacillus circulans chitinase A1 gene upstream of the Keap1 stop codon. Oligonucleotide-directed mutagenesis was used to generate the Keap1-C151S-CBD and Keap1-C288S-CBD plasmids. The HA-Cul3 plasmid was constructed by fusing an N-terminal hemagglutinin (HA) tag with a cDNA sequence coding for amino acids 1-380 of human Cul3 gene. The Gal4-Neh2 expression vector contains the codons for the first 97 amino acids (Neh2 domain) of human Nrf2 fused to the ORF of the Gal4 DNA-binding domain
The reactivity at the amino acid level of KEAP1 was then investigated. […] In order to evaluate specific cysteine residues which may be alkylated in the presence of cymopols, HEK293 cells were co-transfected with either a mock plasmid, a wild-type Keap1-CBD, or a Keap1-C151S-CBD and HA-Cul3 (to evaluate Cul3 binding inhibition upon cymopol addition), HA-Nrf2 (to evaluate Nrf2-Keap1 interactions), or Gal4-Neh2 and HA-Ub (to evaluate ubiquitination patterns of Nrf2).

Structures are written as SMILES. “Also recorded” adds a separate entry of the source.

Method for Nrf2: IMR-32 cells were seeded in 6-well format at 2×10^6 cells/well and incubated at 37° C. overnight. The cells were treated with a solvent control (DMSO, 1%, v/v) or serial dilutions of isolated compounds or extracts for the indicated periods of time. The cytosolic and nuclear extracts were separated and prepared using a commercial kit, NE-PER Nuclear and Cytoplasmic Extraction Reagents (Thermo Scientific). Briefly, cells were gently washed once with 200 μL at DPBS before being resuspended in 1 mL DPBS, transferred to a pre-chilled tube, and pelleted at 500×g for 3 min at 4° C. The supernatant was removed and cells were resuspended in ice-cold CER I containing 1% cOmplete, EDTA-free Protease Inhibitor Cocktail (v/v, Roche Diagnostics) by vigorous vortexing. After addition of ice-cold buffer CER II, the samples were vortexed vigorously for 5 s and incubated on ice for 1 min twice before being pelleted at 16,000×g for 5 min at 4° C. The supernatant was transferred to a fresh tube and used as cytosolic stock. The pellet was washed twice by adding 75 μL ice-cold DPBS, flicking, centrifuging, and removing the supernatant before resuspension in ice-cold buffer NER supplemented with 1% cOmplete, EDTA-free Protease Inhibitor Cocktail (v/v). […] Subsequently, the cellular and nuclear extracts were analyzed by immunoblot.

On to `CC(C)=CCC/C(C)=C/Cc1cc(O)c(Br)cc1O` [Compound 1, (E)-2-bromo-5-(3,7-dimethylocta-2,6-dien-1-yl)benzene-1,4-diol], for which, in experiment [1], the “transcription of a series of ARE-driven genes” value is on record as “induce the transcription of a series of ARE-driven genes”. Also, in experiment [2], the “NO production in wild-type MEFs” value was “minimized NO production; also recorded: restore basal level of NO”; the “anti-inflammatory effects in Nrf2−/− and Keap1−/− MEFs” value is on record as “did not demonstrate appreciable anti-inflammatory effects”. In the experiment with Cox2, the “reduction of Cox2 transcript levels” value is on record as 90%. In the experiment on Nqo1, the “increase of Nqo1 transcript levels” value was > 96%. For the same compound, in experiment [3], the “reduction in levels of NO” value is listed as > 96%. For the same compound, the “time after which increased nuclear NRF2 levels were seen” value with Nrf2 (IMR-32 cells) was determined as 18 h. In addition, the “nuclear translocation of NRF2” value with Nrf2 (IMR-32 cells, 0, 1, 6 or 18 hours) is “induced nuclear translocation of NRF2”. For the same compound, in the experiment on Hmox1, the “transcript levels of Hmox1 in various organs” value is “elevated transcript levels of Hmox1”. The “Keap1-associated Cul3 / Keap1-Cul3 interaction” value at Keap1 (Cys-151) was “increase binding of Keap1-Cul3 interaction”. At Keap1 (Cys-151) (listed as compound 1), the “Keap1-associated Cul3 / Keap1-Cul3 interaction” value is “reduced”. In addition, the “dimerization of Keap1” value on Keap1 (Cys-151) (Keap1-CBD and HA-Nrf2, dependent on Cys-151) is “increase dimerization of Keap1”. Besides, the Neh2 ubiquitination result on Keap1 (Cys-151) (wild-type Keap1, Gal4-Neh2 and HA-Ub, preliminary data) is “less Neh2 ubiquitination”. Moreover, the “levels of Neh2” value on Keap1 (Cys-151) (wild-type Keap1, preliminary data) is given as “higher levels of Neh2”.
